Experiment [1] has as its system IL-23 (p19/p40). As to the kind of experiment: IL23-p19 ELISA, dendritic cells (DC differentiated from human PBMC, IFNγ primed), LPS stimulated. The settings on record: Dendritic cell, human PBMC-derived dendritic cells, 1 h compound pre-incubation, LPS 1 μg/ml 18 hours, 10 pt. The class given is cell-based. The protocol: Compound Screening Using DC Cells
I. Differentiation of PBMC's to DC Cells:
After 2 hours, the media including floating cells was aspirated out carefully and 12 ml of fresh RPMI media (10% FBS) containing GMCSF (100 ng/ml) and IL4 (20 ng/ml) was added, and the flask was kept in a 37° C. incubator for 7 days.
After 3 days, fresh GMCSF (100 ng/ml) and IL4 (20 ng/ml) were added to the flask and the incubation continued. After 7 days, the fully differentiated cells were harvested by spinning down (1200 rpm/5 min) and aspirating the media. The cells were suspended in fresh RPMI media (10% FBS) containing 50 ng/ml IFNγ (1000 U/ml) and then plated (50K/well in 100 μl) onto a white clear bottom 96 well plate and left in a 37° C. incubator for 24 hours.
II. Addition of Compounds:
After 24 hours incubation, 100 μl of RPMI media was added containing 2× concentrated test compound per well to the above cell-culture media (final concentration becomes 1×) and the plates were pre-incubated for 1 hour at 37° C. before stimulating with LPS.
The mixture was shaken and incubated the plates at 37° C. for an additional 18 hours.
155 μl of the supernatant was harvested from each well carefully (without the tip touching the bottom of the well) and to the remaining 50 μl/well of the cell culture plate was added 50 μl of Cell Titer Glo reagent. The mixture was incubated for 1-2 minutes on a shaker and the plate was read for luminescence intensity to determine the compound cytotoxicity. The cell culture supernatant collected above was used to carry out IL23 ELISA (65 μl—Supernatant) and IL10 ELISA (90 μl—Supernatant) as described below.
Human IL-23 (p19/p40) ELISA Protocol (e-Biosciences)
To 10.5 ml PBS add 50 μl of anti-IL23 (p19) was added capture antibody (2.5 μg/ml). The mixture was mixed well and 100 μl of the coating solution was added to each well of the 96 well white plates from Pierce. The wells were covered and incubated overnight at 4° C.
The anti-IL23 (p19)-antibody-coated plates were washed 2× using TBST (use plate washer) and blocked using 200 μl of 0.5% Casein for 1.5-2 hours at room temperature with shaking.
Addition of Supernatant and Detection:
The plates were washed 2× using TBST and the supernatant was transferred (65 μl/well) to the above pre-blocked/IL23(p19)-antibody-coated 96 well plate, and incubated at room temperature for 1.5 hours with shaking.
The plates were washed 4× using TBST (plate washer) and 100 μl/well detection antibody solution prepared from 2 μl of biotin labeled anti-IL-12 (p40/p70) antibody in 11 ml 1% BSA/PBS solution (1-5000 dilution) was added. The plates were incubated for 1 hour with shaking at Room temperature.
Again, the plates were washed 4× with TBST and 100 μl of HRP labeled Streptavidin (R&D Systems) solution (10 μl/10 ml 1% BSA solution) was added, and the plates were incubated at room temperature for another 45 minutes with shaking.
After 45 minutes, the plates were washed with TBST 4× and 100 μl/well Super Signal ELISA Pico Chemiluminescent Substrate from Pierce (3.5 ml A+3.5 ml B+3.5 ml MQ water) was added. The plates were shaken for 1-2 minutes then read on a plate reader.
In general terms: An ELISA detects its analyte on a solid surface through an enzyme-linked reagent.

The test system of experiment [2] is IL-23p19. Kind of experiment: LPS Induced IL23p19 in THP-1 Cells (with IFNγ Primed) Assay. The class given is cell-based, human. The settings on record: Homo sapiens, IFNγ (50 ng/mL) primed, 1 hour compound pre-incubation, LPS 1 ug/mL 18 hours, 10 pt, read-out: IL23-p19 ELISA, THP1-IFNy, LPS, 10 pt EC50. The essentials:
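THP-1 cells (50K/well) primed ~18 h with IFNγ (50 ng/mL) in RPMI/10% FBS, then incubated with compound in duplicate for 18 h at 37° C. Supernatant IL-23p19 measured by chemiluminescent sandwich ELISA, giving EC50 by curve fitting. Toxicity assessed in parallel on the remaining cells by Cell Titer Glo.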

Each structure is given as a SMILES string. Where a name gives a salt, the structure may show the parent alone. Read-outs that look alike come from different tables or passages of the source.

Here are results for 22 molecules from patent publication US10947216B2, “Amide compounds and method for making and using” (Rigel Pharmaceuticals, Inc., priority 2016, dated 2021).

On to `O=C(Nc1cn(C2COC2)nc1-c1ccccn1)c1cccc(-c2cc[nH]n2)n1` [Compound I-117, N-(1-(oxetan-3-yl)-3-(pyridin-2-yl)-1H-pyrazol-4-yl)-6-(1H-pyrazol-3-yl)picolinamide], for which the EC50 in experiment [1] turned out to be 0.1 µM; in experiment [2] (THP-1, THP-1 cells), 0.156 µM.
Take `Cn1cc(NC(=O)c2cccc(C3=CCCNC3)n2)c(-c2ccccn2)n1` [Compound I-65, N-(1-methyl-3-(pyridin-2-yl)-1H-pyrazol-4-yl)-1′,2′,5′,6′-tetrahydro-[2,3′-bipyridine]-6-carboxamide]: the EC50 came out at 7.88 µM in experiment [1] and 77.2 µM in experiment [2] (THP-1, THP-1 cells).
Taken in the same sequence, the figures for `COc1ccc(-c2cccc(C(=O)Nc3cn(C)nc3-c3ccccn3)n2)cc1` [Compound I-52, 6-(4-methoxyphenyl)-N-(1-methyl-3-(pyridin-2-yl)-1H-pyrazol-4-yl)picolinamide] were 1.11 µM and 4.48 µM.
Consider `Cc1cncc(-c2cccc(C(=O)Nc3cn(CCN4CCN(C)CC4)nc3-c3ccccn3)n2)c1` [Compound I-87, 5′-methyl-N-(1-(2-(4-methylpiperazin-1-yl)ethyl)-3-(pyridin-2-yl)-1H-pyrazol-4-yl)-[2,3′-bipyridine]-6-carboxamide], for which the EC50 came out at 2 µM in experiment [1] and 0.0754 µM in experiment [2] (THP-1, THP-1 cells).
On to `CN(C)c1cncc(-c2cccc(C(=O)Nc3cn(C)nc3-c3ccccn3)n2)c1` [Compound I-35, 5′-(dimethylamino)-N-(1-methyl-3-(pyridin-2-yl)-1H-pyrazol-4-yl)-[2,3′-bipyridine]-6-carboxamide], for which the EC50 in experiment [1] came to 0.878 µM; in experiment [2] (THP-1, THP-1 cells) it was 1.11 µM.
Taken in the same sequence, the figures for `O=C(Nc1cn(C2COC2)nc1-c1ccccn1)c1cccc(-c2cn[nH]c2)n1` [Compound I-116, N-(1-(oxetan-3-yl)-3-(pyridin-2-yl)-1H-pyrazol-4-yl)-6-(1H-pyrazol-4-yl)picolinamide] were 0.142 µM and 0.212 µM.
`Cc1cncc(-c2cccc(C(=O)Nc3cn(C)nc3-c3ccccn3)n2)c1` [Compound I-12, 5′-methyl-N-(1-methyl-3-(pyridin-2-yl)-1H-pyrazol-4-yl)-[2,3′-bipyridine]-6-carboxamide]: the EC50 in experiment [1] came out at 0.106 µM; in experiment [2] (THP-1, THP-1 cells), 0.25 µM.
Taken in the same sequence, the figures for `Cn1cc(NC(=O)c2cccc(-c3ccnc(NCC(F)(F)F)c3)n2)c(-c2ccccn2)n1` [Compound I-161, N-(1-methyl-3-(pyridin-2-yl)-1H-pyrazol-4-yl)-2′-((2,2,2-trifluoroethyl)amino)-[2,4′-bipyridine]-6-carboxamide formate] were 4.2 µM and 7.52 µM.
For `O=C(Nc1cn(C2COC2)nc1-c1ccccn1)c1cccc(-c2cncc(F)c2)n1` [Compound I-131, 5′-fluoro-N-(1-(oxetan-3-yl)-3-(pyridin-2-yl)-1H-pyrazol-4-yl)-[2,3′-bipyridine]-6-carboxamide], the concentration for a half-maximal effect (EC50) in experiment [1] is 12.8 µM; in experiment [2] (THP-1, THP-1 cells), 6.62 µM.
Regarding `COCCOCCn1cc(NC(=O)c2cccc(-c3cc4ccc(OC)cc4[nH]3)n2)c(-c2ccccn2)n1` [Compound I-147, 6-(6-methoxy-1H-indol-2-yl)-N-(1-(2-(2-methoxyethoxy)ethyl)-3-(pyridin-2-yl)-1H-pyrazol-4-yl)picolinamide formate], the concentration giving a half-maximal response (EC50) in experiment [1] came out at 10.7 µM; in experiment [2] (THP-1, THP-1 cells) it was 41.1 µM.
Taken in the same sequence, the figures for `Cn1cc(NC(=O)c2cccc(-c3cncc(C4CC4)c3)n2)c(-c2ccccn2)n1` [Compound I-13, 5′-cyclopropyl-N-(1-methyl-3-(pyridin-2-yl)-1H-pyrazol-4-yl)-[2,3′-bipyridine]-6-carboxamide] were 0.531 µM and 1.34 µM.
`COCCOCCn1cc(NC(=O)c2cccc(-c3ccoc3)n2)c(-c2ccccn2)n1` [Compound I-151, 6-(furan-3-yl)-N-(1-(2-(2-methoxyethoxy)ethyl)-3-(pyridin-2-yl)-1H-pyrazol-4-yl)picolinamide 2,2,2-trifluoroacetate]: the concentration for a half-maximal effect (EC50) in experiment [1] worked out at 4.12 µM; in experiment [2] (THP-1, THP-1 cells) it was 7.88 µM.
In the same order, the values of `Cn1cc(NC(=O)c2cccc(-c3cccnc3)n2)c(-c2cnccn2)n1` [Compound I-101, N-(1-methyl-3-(pyrazin-2-yl)-1H-pyrazol-4-yl)-[2,3′-bipyridine]-6-carboxamide] are 1.83 µM and 14.5 µM.
With `CS(=O)(=O)Nc1cncc(-c2cccc(C(=O)Nc3cn(C4COC4)nc3-c3ccccn3)n2)c1` [Compound I-119, sodium (methylsulfonyl)(6-((1-(oxetan-3-yl)-3-(pyridin-2-yl)-1H-pyrazol-4-yl)carbamoyl)-[2,3′-bipyridine]-5′-yl)amide], the half-maximal effective concentration (EC50) is 1 µM in experiment [1] (Homo sapiens) and 1.02 µM in experiment [2] (THP-1 cells).
In the case of `Cc1cncc(-c2cccc(C(=O)Nc3cn(C)nc3-c3ccc(OCC(C)(C)O)cn3)n2)c1` [Compound I-178, N-(3-(5-(2-hydroxy-2-methylpropoxy)pyridin-2-yl)-1-methyl-1H-pyrazol-4-yl)-5′-methyl-[2,3′-bipyridine]-6-carboxamide], the 50% effective concentration (EC50) stood at 19.3 µM in experiment [1] and 2.07 µM in experiment [2] (THP-1, THP-1 cells).
In the same order, the values of `Cn1cc(NC(=O)c2cccc(-c3cncc(NC(C)(C)C)c3)n2)c(-c2ccccn2)n1` [Compound I-29, 5′-(tert-butylamino)-N-(1-methyl-3-(pyridin-2-yl)-1H-pyrazol-4-yl)-[2,3′-bipyridine]-6-carboxamide] are 0.91 µM and 16.4 µM.
`Cc1cncc(-c2cccc(C(=O)Nc3cn(C)nc3-c3ccc(OC4COC4)cn3)n2)c1` [Compound I-181, 5′-methyl-N-(1-methyl-3-(5-(oxetan-3-yloxy)pyridin-2-yl)-1H-pyrazol-4-yl)-[2,3′-bipyridine]-6-carboxamide]: the concentration for a half-maximal effect (EC50) is 4.17 µM in experiment [1] and 1.49 µM in experiment [2] (THP-1, THP-1 cells).
In the same order, the values of `O=C(Nc1cn(C2COC2)nc1-c1ccccn1)c1cccc(-c2cncc(C(F)(F)F)c2)n1` [Compound I-132, N-(1-(oxetan-3-yl)-3-(pyridin-2-yl)-1H-pyrazol-4-yl)-5′-(trifluoromethyl)-[2,3′-bipyridine]-6-carboxamide] are 7.77 µM and 54.9 µM.
Taken in the same sequence, the figures for `COc1cncc(-c2cccc(C(=O)Nc3cn(C)nc3-c3ccccn3)n2)c1` [Compound I-19, 5′-methoxy-N-(1-methyl-3-(pyridin-2-yl)-1H-pyrazol-4-yl)-[2,3′-bipyridine]-6-carboxamide] were 5.63 µM and 2.54 µM.
Taken in the same sequence, the figures for `Cn1cc(NC(=O)c2cccc(-c3ccn[nH]3)n2)c(-c2ccccn2)n1` [Compound I-6, N-(1-methyl-3-(pyridin-2-yl)-1H-pyrazol-4-yl)-6-(1H-pyrazol-5-yl)picolinamide] were 0.162 µM and 0.536 µM.
Regarding `COc1ccc(-c2nn(C)cc2NC(=O)c2cccc(-c3cn[nH]c3)n2)nc1` [Compound I-68, N-(3-(5-methoxypyridin-2-yl)-1-methyl-1H-pyrazol-4-yl)-6-(1H-pyrazol-4-yl)picolinamide], the EC50 in experiment [1] was found to be 2.41 µM; in experiment [2] (THP-1, THP-1 cells), 0.29 µM.
Consider `Cn1cc(NC(=O)c2cccc(-c3ccncc3)n2)c(-c2cnccn2)n1` [Compound I-100, N-(1-methyl-3-(pyrazin-2-yl)-1H-pyrazol-4-yl)-[2,4′-bipyridine]-6-carboxamide], for which the EC50 was found to be 9.85 µM in experiment [1] and 64.1 µM in experiment [2] (THP-1, THP-1 cells).

By EC50 is commonly meant the concentration at which the effect is half-maximal.
